Reference: ChEMBL document CHEMBL1201862, “PubChem BioAssay data set” (2004)
Calls of active or inactive are those of the source.

Experiments:
[1] = molecular target: Intestinal-type alkaline phosphatase (Mus musculus, UniProt P24822); assay: PubChem AID 488785; format: functional
[2] = molecular target: T1, Alkaline phosphatase, tissue-nonspecific isozyme (Homo sapiens, UniProt P05186); assay: TNAP enzyme inhibition by screening hits, dose response, selectivity assay for mouse IAP inhibitor project, biochemical, human TNAP, uHTS hits (AID 488906); format: functional
T1 sequence (P05186 whole entry): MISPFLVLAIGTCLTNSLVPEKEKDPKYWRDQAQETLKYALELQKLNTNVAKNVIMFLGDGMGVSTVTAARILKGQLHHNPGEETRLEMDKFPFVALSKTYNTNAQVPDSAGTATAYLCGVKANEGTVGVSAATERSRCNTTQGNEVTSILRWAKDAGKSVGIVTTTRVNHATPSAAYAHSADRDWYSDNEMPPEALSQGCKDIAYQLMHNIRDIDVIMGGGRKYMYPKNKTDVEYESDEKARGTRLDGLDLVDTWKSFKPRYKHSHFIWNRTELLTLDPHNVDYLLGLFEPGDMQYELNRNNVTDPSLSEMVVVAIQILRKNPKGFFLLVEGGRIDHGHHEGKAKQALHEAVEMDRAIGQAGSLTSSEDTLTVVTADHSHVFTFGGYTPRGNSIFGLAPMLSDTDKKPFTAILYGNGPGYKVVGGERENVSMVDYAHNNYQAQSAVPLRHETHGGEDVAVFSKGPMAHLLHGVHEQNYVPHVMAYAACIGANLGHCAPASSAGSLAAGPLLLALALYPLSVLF

[3] = molecular target: Intestinal-type alkaline phosphatase (Homo sapiens, UniProt P09923); assay: inhibition of human intestinal alkaline phosphatase – biochemical, dose response (AID 488876); format: functional
Intestinal-type alkaline phosphatase (Homo sapiens, UniProt P09923), sequence (P09923 whole entry): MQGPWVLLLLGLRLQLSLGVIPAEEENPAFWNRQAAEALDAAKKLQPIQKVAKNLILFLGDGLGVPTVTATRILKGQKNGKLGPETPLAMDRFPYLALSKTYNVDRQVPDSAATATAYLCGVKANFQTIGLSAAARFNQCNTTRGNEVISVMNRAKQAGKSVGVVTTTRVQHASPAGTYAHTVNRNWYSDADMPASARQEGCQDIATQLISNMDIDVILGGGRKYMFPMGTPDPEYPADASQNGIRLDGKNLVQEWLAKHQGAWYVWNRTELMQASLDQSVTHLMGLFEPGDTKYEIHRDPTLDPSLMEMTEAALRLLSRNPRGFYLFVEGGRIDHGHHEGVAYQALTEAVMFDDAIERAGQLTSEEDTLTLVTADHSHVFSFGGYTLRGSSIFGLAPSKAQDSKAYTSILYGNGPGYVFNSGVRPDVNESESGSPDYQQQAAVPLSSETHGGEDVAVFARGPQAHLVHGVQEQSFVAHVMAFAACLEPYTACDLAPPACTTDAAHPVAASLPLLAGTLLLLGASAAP

[4] = molecular target: Beta-galactosidase (Escherichia coli, UniProt Q8VNN2); assay: PubChem AID 485352; format: functional
Beta-galactosidase, sequence (Q8VNN2 whole entry): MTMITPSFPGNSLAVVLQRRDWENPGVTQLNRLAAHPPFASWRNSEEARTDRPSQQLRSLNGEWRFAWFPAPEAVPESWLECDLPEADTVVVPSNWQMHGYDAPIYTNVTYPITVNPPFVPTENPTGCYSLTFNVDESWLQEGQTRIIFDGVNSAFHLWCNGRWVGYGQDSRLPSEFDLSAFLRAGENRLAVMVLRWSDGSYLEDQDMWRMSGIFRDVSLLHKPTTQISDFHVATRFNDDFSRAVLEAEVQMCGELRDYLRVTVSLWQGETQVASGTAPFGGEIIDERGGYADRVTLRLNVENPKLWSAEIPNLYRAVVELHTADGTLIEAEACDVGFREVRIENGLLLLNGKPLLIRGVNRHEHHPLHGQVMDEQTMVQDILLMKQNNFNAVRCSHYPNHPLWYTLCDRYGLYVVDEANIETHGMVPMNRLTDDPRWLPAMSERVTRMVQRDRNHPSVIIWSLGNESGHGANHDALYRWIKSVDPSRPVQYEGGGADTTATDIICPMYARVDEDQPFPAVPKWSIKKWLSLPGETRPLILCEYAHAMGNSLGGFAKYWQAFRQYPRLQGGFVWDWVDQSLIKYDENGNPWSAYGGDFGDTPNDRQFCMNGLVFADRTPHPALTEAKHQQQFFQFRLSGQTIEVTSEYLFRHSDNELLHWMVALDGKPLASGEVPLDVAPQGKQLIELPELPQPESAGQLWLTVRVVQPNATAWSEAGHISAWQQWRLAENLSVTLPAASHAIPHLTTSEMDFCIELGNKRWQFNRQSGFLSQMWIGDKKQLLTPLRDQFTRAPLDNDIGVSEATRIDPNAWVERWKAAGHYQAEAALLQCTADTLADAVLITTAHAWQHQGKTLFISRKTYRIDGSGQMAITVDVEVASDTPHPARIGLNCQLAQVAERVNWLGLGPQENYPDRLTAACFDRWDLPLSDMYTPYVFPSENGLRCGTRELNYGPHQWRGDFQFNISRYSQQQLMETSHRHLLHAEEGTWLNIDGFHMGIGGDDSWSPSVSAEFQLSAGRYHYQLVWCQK

[5] = molecular target: T2, Type-1 angiotensin II receptor (Homo sapiens, UniProt P30556); assay: AT1 receptor antagonists, dose response, selectivity assay for APJ receptor antagonist project, cell-based, uHTS hits (AID 463214); format: functional;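 further: antagonist potency against angiotensin II stimulated AT1 response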
T2 sequence (P30556 whole entry): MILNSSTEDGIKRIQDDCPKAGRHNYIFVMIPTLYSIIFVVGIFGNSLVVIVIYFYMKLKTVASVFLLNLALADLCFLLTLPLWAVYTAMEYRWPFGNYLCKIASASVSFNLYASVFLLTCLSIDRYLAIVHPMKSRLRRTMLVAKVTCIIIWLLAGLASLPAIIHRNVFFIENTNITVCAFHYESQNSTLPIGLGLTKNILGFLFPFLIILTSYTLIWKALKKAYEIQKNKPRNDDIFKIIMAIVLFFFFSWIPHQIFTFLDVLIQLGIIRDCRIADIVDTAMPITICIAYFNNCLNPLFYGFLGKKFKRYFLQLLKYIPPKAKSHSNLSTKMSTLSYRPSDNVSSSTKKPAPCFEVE

[6] = Luminescence Cell-Based Dose Retest to Confirm Inhibitors of Cancer Stem Cells. [Related pubchem assays (depositor defined):AID2717, AID2721]; format: functional; conditions: Homo sapiens
[7] = test system: INS1; assay: beta cell apoptosis inhibitors, cytokine rescue, dose response, luminescence, retest (AID 449756); format: functional, cell-based; conditions: Rattus norvegicus;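 further: cell death triggered by IL-1 beta plus TNF-alpha plus IFN-gamma mixture; protective hits raise ATP signal compared with cytokine alone wells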
[8] = test system: H9c2; assay: cells; format: functional, cell-based; conditions: Rattus norvegicus, H9c2, Myocardium;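 further: confirmatory concentration-response retest of ultra-high-throughput screening hits for modulation of myocardial damage; cell death induced by hydrogen peroxide oxidative stress; compound pretreatment for 60 min then peroxide exposure for 2 h; potency is for protecting the cells against peroxide damage rather than for killing them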
[9] = molecular target: Glucose-6-phosphate 1-dehydrogenase (Homo sapiens, UniProt P11413); assay: human G6PD enzyme inhibitors, dose response, selectivity assay for P. falciparum G6PD inhibitor project, biochemical, fluorescence (AID 504792); format: functional
Glucose-6-phosphate 1-dehydrogenase, sequence (P11413 whole entry): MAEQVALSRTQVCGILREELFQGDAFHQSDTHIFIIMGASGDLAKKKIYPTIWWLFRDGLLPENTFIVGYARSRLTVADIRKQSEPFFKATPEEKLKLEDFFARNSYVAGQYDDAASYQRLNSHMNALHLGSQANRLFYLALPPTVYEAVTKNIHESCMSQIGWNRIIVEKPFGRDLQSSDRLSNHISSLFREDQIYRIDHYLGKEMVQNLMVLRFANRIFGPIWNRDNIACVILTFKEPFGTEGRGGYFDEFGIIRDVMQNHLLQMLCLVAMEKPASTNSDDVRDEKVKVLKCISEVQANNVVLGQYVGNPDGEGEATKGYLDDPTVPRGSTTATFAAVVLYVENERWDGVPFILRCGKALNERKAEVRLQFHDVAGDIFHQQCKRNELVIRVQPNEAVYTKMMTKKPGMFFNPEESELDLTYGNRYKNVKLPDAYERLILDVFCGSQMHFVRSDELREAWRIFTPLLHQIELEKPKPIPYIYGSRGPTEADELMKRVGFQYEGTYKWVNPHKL

[10] = test system: A-375; assay: MITF: Counter assay: A375 proliferation Measured in Cell-Based System Using Plate Reader - 2084-03_Inhibitor_Dose_DryPowder_Activity. [Related pubchem assays (depositor defined):AID488944]; format: functional; conditions: Homo sapiens
[11] = test system: A-375; assay: A375 melanoma cell viability reduction, dose response, counter-screen for MITF modulator project, cherry-pick samples, set 2 (AID 540335); format: functional, cell-based; conditions: Homo sapiens

Intestinal-type alkaline phosphatase (Mus musculus, UniProt P24822), sequence (P24822 whole entry): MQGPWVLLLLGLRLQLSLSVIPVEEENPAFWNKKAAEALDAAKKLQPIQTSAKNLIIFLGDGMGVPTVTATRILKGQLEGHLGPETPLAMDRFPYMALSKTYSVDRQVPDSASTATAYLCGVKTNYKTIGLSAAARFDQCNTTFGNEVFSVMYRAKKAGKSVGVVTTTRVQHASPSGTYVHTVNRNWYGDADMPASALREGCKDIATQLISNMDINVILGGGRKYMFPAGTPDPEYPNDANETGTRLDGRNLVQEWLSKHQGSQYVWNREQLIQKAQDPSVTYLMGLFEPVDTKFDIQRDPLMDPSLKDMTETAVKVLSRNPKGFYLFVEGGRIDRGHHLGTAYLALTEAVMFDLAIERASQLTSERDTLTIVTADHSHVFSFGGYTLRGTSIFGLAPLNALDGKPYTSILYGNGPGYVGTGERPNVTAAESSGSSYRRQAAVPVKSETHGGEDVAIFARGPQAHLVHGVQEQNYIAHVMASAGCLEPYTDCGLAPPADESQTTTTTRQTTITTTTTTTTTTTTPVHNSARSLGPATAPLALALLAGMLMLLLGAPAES

With `CC(/C=C/C1(O)C(C)CC(=O)CC1(C)C)OC1OC(CO)C(O)C(O)C1O` (stereo not drawn) as the molecule, how does the IC50 [1] read?
The IC50 was 9.13 µM (active).

And the IC50 [2]?
Its IC50 is > 100 µM (inactive).

And the IC50 [3]?
The IC50 was > 100 µM (inactive).

For `CC1(C)Cc2c(c(N3CCOCC3)nc3sc4c(NN)ncnc4c23)CS1`, which EC50 [4] is on record?
Its EC50 is > 40 µM (inactive).

And the IC50 [5]?
Its IC50 is 16.8 µM (active).

And the AC50 [6]?
Its AC50 is 7.43 µM (active).

What about the AC50 [7] of the same molecule?
Its AC50 is 2.08 µM (active).

What about the IC50 [8] of the same molecule?
Its IC50 is 10 µM (active).

For `O=C(Nc1ccc(N2CCOCC2)c(Cl)c1)c1ccc(Cl)cc1`, which IC50 [9] is on record?
Its IC50 is > 80 µM (inactive).

With `Cc1ccc2oc(=O)n(CCCOc3ccccc3)c2c1` as the molecule, how does the AC50 [10] read?
The AC50 was > 35 µM (active).

What about the AC50 [11] of the same molecule?
Its AC50 is > 35 µM (active).

Which AC50 [10] does the source give for `Cc1cccc(OCC(=O)Nc2cccc(O)c2)c1` here?
The AC50 was > 35 µM (active).

And the AC50 [11]?
Its AC50 is > 35 µM (active).
